Measurements published in publication PMC7934800, “Amino- and polyaminophthalazin-1(2H)-ones: synthesis, coordination properties, and biological activity” (Beilstein Journal of Organic Chemistry, 2021).

Experiments:
[1] = system: PC-3 (human prostate cancer cell line); test: MTT cytotoxicity assay, PC-3; type: cell-based; conditions: 72 h of cell treatment, PC-3 cells
Source text: (§1) We used the MTT assay to evaluate compounds 5c, 5d, 5f, 5g, 6b, and 6d for their potential activity on cytotoxicity, proliferation and growth of HT-29 (human colon adenocarcinoma cell line), PC-3 (human prostate cancer cell line) and L-929 cells (mouse fibroblast cell line).
(§2) 2.1 Materials and methods:
(§3) Trypsin-EDTA and all media (RPMI 1640, DMEM/F-12K and IMDM) were purchased from Biowest (CytoGen, Poland). Buffered saline (PBS), penicillin-streptomycin solution stabilized, fetal bovine serum (FBS), amino acids solution (MEM), β-mercaptoethanol, dimethyl sulfoxide (DMSO) and MTT 3-(4,5-dimethylthiazol-2-yl)- […] bromide were supplied by Sigma Aldrich Chemical Co (USA).
(§4) All tested cell lines were provided by American Type Culture Collection (ATCC, […]
(§5) Rockville, Manassas,VA, USA). […]
(§6) Cells were maintained in a humidified incubator at 37 °C in a 5% CO2 atmosphere and were regularly screened for mycoplasma contamination. Exponential growth of the cells was controlled by their routine passaging at 90% confluence three times a week using 0.025% trypsin/EDTA.
(§7) 2.3 Cytotoxicity analysis – MTT assay:
(§8) The viability of the cells is associated with their mitochondrial integrity and capacity.
(§9) For that reason, in the MTT microplate assay with 3-(4,5-dimethylthiazol-2-yl)-[…] bromide, first described by Mosmann [ 5], only viable cells with intact metabolism have the ability to incorporate the yellow, water-soluble tetrazolium […]
(§10) dehydrogenase to the violet-blue formazan compound. After dissolving the formazan crystals in an organic solvent, e.g., dimethyl sulfoxide (DMSO), the absorbance of the formazan solution can be measured spectrophotometrically at 570 nm.
(§11) In our research, the MTT assay was used to describe the effect of the tested compounds on cytotoxicity, proliferation and growth of HT-29, PC-3 and L-929 cells.
(§12) Before treatments with the tested compounds the suspension of 8×10^3 cells in 100 µ L medium was transferred to each well of a standard 96-well microplate. Subsequently, the plates were incubated for 24 h (5% CO 2; 37 °C) to ensure cell growth.
(§13) Afterwards, the examined substances at 10 different concentrations were added in 2– […]
(§14) volume of 100 µL medium per well. These concentrations were obtained diluting the compounds first in DMSO and then in medium, which were subsequently used to treat cells cultures in a final DMSO concentration between 0.1 and 1% per well [6] (Da Violante et. al. 2002). As control, the first and last columns were filled only with medium […]
(§15) without studied compounds. Furthermore, blanks (wells without cells) were also […]
(§16) The plates were then incubated for 72 h (37 °C; 5% CO2). Subsequently, 25 µL of fresh MTT solution (5 mg/mL in PBS) was added to each well and the microplates were incubated in a humidified atmosphere for additional 3 h (37 °C; 5% CO2). After the incubation, the MTT solution was replaced by 100 µL of DMSO in order to dissolve formazan complexes and absorbance was immediately measured (microplate reader PowerWaveXS BioTek Instruments, Inc., USA) at 570 nm.
(§17) The IC50 value (concentration of an inhibitor which reduces the absorbance level in the treated cells in comparison to untreated cells by half) representing the cytotoxicity of a substance was evaluated for each studied compound using the GraphPad Prism 7.0 software system (GraphPad Prism Software Inc., USA). To determinate statistical significance between the results one-way variance analysis (ANOVA) was used. The samples homogeneity was tested using Bartlett’s test, followed by Dunnett’s test. All data are presented as the mean of the replicates from three independent experiments, with a significance level of p ≤ 0.05.

[2] = system: HT-29 (human colon adenocarcinoma cell line); test: MTT cytotoxicity assay, HT-29; type: cell-based; conditions: 72 h of cell treatment, HT-29 cells
Source text: as §1, §2, §3, §4, §5
The HT-29 cells were cultured in RPMI-1640 medium containing 2 mM L-glutamine, 10 mM HEPES, 1 mM sodium pyruvate, 4500 mg/L glucose and 1500 mg/L sodium bicarbonate, supplemented with 10% (v/v) fetal bovine serum (FBS), 1% (v/v) penicillin/streptomycin and 1% (v/v) MEM amino acid’s solution. […]
as §6, §7, §8, §9, §10, §11, §12, §13, §14, §15, §16, §17

[3] = system: L-929 cells (mouse fibroblast cell line); test: MTT cytotoxicity assay, L-929; type: cell-based; conditions: L929, 72 h of cell treatment, L-929 control (non-cancer) cells
Source text: as §1, §2, §3, §4, §5
In addition, the mouse fibroblast cell line
(L-929; ATCC® CCL-1™) was used as a model for non-cancer cells. […]
The L-929 was cultivated in IMDM Medium with 4 mM L-glutamine, 4500 mg/L glucose, and 1500 mg/L sodium bicarbonate supplemented with 10% (v/v) fetal bovine serum (FBS), 1% (v/v) penicillin/streptomycin and 1% (v/v) β-mercaptoethanol.
as §6, §7, §8, §9, §10, §11, §12, §13, §14, §15, §16
as §17, with “with a significance level of p ≤ 0.05.” left out

| melting point | Compound | IC50 [1] | IC50 [2] | IC50 [3] |
| --- | --- | --- | --- | --- |
| 86 to 87 °C | CCCCCCNc1nn(C(C)C)c(=O)c2ccccc12 [5e] |  |  |  |
| 216 to 218 °C | Cn1nc(NCc2ccc(C(F)(F)F)cc2)c2ccccc2c1=O [5g] | 22.4 µM | 31.4 µM | 21.3 µM |
| 153 to 155 °C | CNCCNc1nn(C)c(=O)c2ccccc12 [6d] | 83 µM | 75.6 µM | 52.7 µM |
| 84 to 86 °C | CCN(CC)CCCC(C)Nc1nn(C)c(=O)c2ccccc12 (centres unmarked) [6b] | 66.3 µM | 51.6 µM | 92.9 µM |
| 160 to 163 °C | Cn1nc(N(c2ccccc2)c2ccccn2)c2ccccc2c1=O [5i] |  |  |  |
| 135 to 136 °C | Cn1nc(N2CCOCC2)c2ccccc2c1=O [5a] |  |  |  |
| 132 to 134 °C | Cn1nc(N2CCSCC2)c2ccccc2c1=O [5b] |  |  |  |
| 121 to 123 °C | CC(C)n1nc(NCCc2cccs2)c2ccccc2c1=O [5f] | 27.3 µM | 27.4 µM | 20.1 µM |
| 108 to 110 °C | COc1ccc(CNc2nn(C(C)C)c(=O)c3ccccc23)cc1 [5h] |  |  |  |
|  | Cn1nc(NC2CCCCC2)c2ccccc2c1=O [5d] | 20.1 µM | 29.8 µM | 20.4 µM |
| 92 to 93 °C | Cn1nc(N2CCCCC2)c2ccccc2c1=O [5c] | 46 µM | 36.7 µM | 27.4 µM |
| 58 to 60 °C | CCN(CC)CCCC(C)Nc1nn(CCN(C)C)c(=O)c2ccccc12 (centres unmarked) [6e] |  |  |  |
